From article PMC4832243, “Discovery of Potent VEGFR-2 Inhibitors based on Furopyrimidine and Thienopyrimidne Scaffolds as Cancer Targeting Agents” (Scientific Reports, 2016)

Legend:
Assay type in all cases: cell-based
HCT-116 = assay: NCI 60 cell line panel (SRB), HCT-116; settings: Homo sapiens; HCT-116, Colon Cancer; single dose of 10 μM; read-out: Cell Growth Percent
OVCAR-4 = assay: NCI 60 cell line panel (SRB), OVCAR-4; settings: Homo sapiens; OVCAR-4, Ovarian Cancer; single dose of 10 μM; read-out: Cell Growth Percent
786-0 = assay: NCI 60 cell line panel (SRB), 786-0; settings: Homo sapiens; 786-0, Renal Cancer; single dose of 10 μM; read-out: Cell Growth Percent
OVCAR-5 = assay: NCI 60 cell line panel (SRB), OVCAR-5; settings: Homo sapiens; OVCAR-5, Ovarian Cancer; single dose of 10 μM; read-out: Cell Growth Percent
MOLT-4 = assay: NCI 60 cell line panel (SRB), MOLT-4; settings: Homo sapiens; MOLT-4, Leukemia; single dose of 10 μM; read-out: Cell Growth Percent
PC-3 = assay: NCI 60 cell line panel (SRB), PC-3; settings: Homo sapiens; PC-3, Prostate Cancer; single dose of 10 μM; read-out: Cell Growth Percent
A549/ATCC = assay: NCI 60 cell line panel (SRB), A549/ATCC; settings: Homo sapiens, Non-Small Cell Lung Cancer, single dose of 10 μM, read-out: Cell Growth Percent
K-562 = assay: NCI 60 cell line panel (SRB), K-562; settings: Homo sapiens, K562; K-562, Leukemia; single dose of 10 μM; read-out: Cell Growth Percent
DU-145 = assay: NCI 60 cell line panel (SRB), DU-145; settings: Homo sapiens; DU-145, Prostate Cancer; single dose of 10 μM; read-out: Cell Growth Percent
NCI-H522 = assay: NCI 60 cell line panel (SRB), NCI-H522; settings: Homo sapiens; NCI-H522, Non-Small Cell Lung Cancer; single dose of 10 μM; read-out: Cell Growth Percent
SF-268 = assay: NCI 60 cell line panel (SRB), SF-268; settings: Homo sapiens; SF-268, CNS Cancer; single dose of 10 μM; read-out: Cell Growth Percent
RPMI-8226 = assay: NCI 60 cell line panel (SRB), RPMI-8226; settings: Homo sapiens; RPMI-8226, Leukemia; single dose of 10 μM; read-out: Cell Growth Percent
IGROV1 = assay: NCI 60 cell line panel (SRB), IGROV1; settings: Homo sapiens, IGROV-1; IGROV1, Ovarian Cancer; single dose of 10 μM; read-out: Cell Growth Percent
HT29 = assay: NCI 60 cell line panel (SRB), HT29; settings: Homo sapiens, HT-29; HT29, Colon Cancer; single dose of 10 μM; read-out: Cell Growth Percent
MDA-MB-468 = assay: NCI 60 cell line panel (SRB), MDA-MB-468; settings: Homo sapiens; MDA-MB-468, Breast Cancer; single dose of 10 μM; read-out: Cell Growth Percent
RXF 393 = assay: NCI 60 cell line panel (SRB), RXF 393; settings: Homo sapiens; RXF 393, Renal Cancer; single dose of 10 μM; read-out: Cell Growth Percent
CAKI-1 = assay: NCI 60 cell line panel (SRB), CAKI-1; settings: Homo sapiens; CAKI-1, Renal Cancer; single dose of 10 μM; read-out: Cell Growth Percent
A498 = assay: NCI 60 cell line panel (SRB), A498; settings: Homo sapiens; A498, Renal Cancer; single dose of 10 μM; read-out: Cell Growth Percent
BT-549 = assay: NCI 60 cell line panel (SRB), BT-549; settings: Homo sapiens; BT-549, Breast Cancer; single dose of 10 μM; read-out: Cell Growth Percent
SK-MEL-5 = assay: NCI 60 cell line panel (SRB), SK-MEL-5; settings: Homo sapiens; SK-MEL-5, Melanoma; single dose of 10 μM; read-out: Cell Growth Percent
SK-MEL-28 = assay: NCI 60 cell line panel (SRB), SK-MEL-28; settings: Homo sapiens; SK-MEL-28, Melanoma; single dose of 10 μM; read-out: Cell Growth Percent
CCRF-CEM = assay: NCI 60 cell line panel (SRB), CCRF-CEM; settings: Homo sapiens, Leukemia, single dose of 10 μM, read-out: Cell Growth Percent
NCI-H23 = assay: NCI 60 cell line panel (SRB), NCI-H23; settings: Homo sapiens; NCI-H23, Non-Small Cell Lung Cancer; single dose of 10 μM; read-out: Cell Growth Percent
SW-620 = assay: NCI 60 cell line panel (SRB), SW-620; settings: Homo sapiens; SW-620, Colon Cancer; single dose of 10 μM; read-out: Cell Growth Percent
T-47D = assay: NCI 60 cell line panel (SRB), T-47D; settings: Homo sapiens, T47D, Breast Cancer, single dose of 10 μM, read-out: Cell Growth Percent
KM12 = assay: NCI 60 cell line panel (SRB), KM12; settings: Homo sapiens; KM12, Colon Cancer; single dose of 10 μM; read-out: Cell Growth Percent
MALME-3M = assay: NCI 60 cell line panel (SRB), MALME-3M; settings: Homo sapiens, Melanoma, single dose of 10 μM, read-out: Cell Growth Percent
HOP-92 = assay: NCI 60 cell line panel (SRB), HOP-92; settings: Homo sapiens; HOP-92, Non-Small Cell Lung Cancer; single dose of 10 μM; read-out: Cell Growth Percent
OVCAR-3 = assay: NCI 60 cell line panel (SRB), OVCAR-3; settings: Homo sapiens; OVCAR-3, Ovarian Cancer; single dose of 10 μM; read-out: Cell Growth Percent
UO-31 = assay: NCI 60 cell line panel (SRB), UO-31; settings: Homo sapiens; UO-31, Renal Cancer; single dose of 10 μM; read-out: Cell Growth Percent
LOX IMVI = assay: NCI 60 cell line panel (SRB), LOX IMVI; settings: Homo sapiens, Melanoma, single dose of 10 μM, read-out: Cell Growth Percent
NCI-H460 = assay: NCI 60 cell line panel (SRB), NCI-H460; settings: Homo sapiens; NCI-H460, Non-Small Cell Lung Cancer; single dose of 10 μM; read-out: Cell Growth Percent
NCI-H322M = assay: NCI 60 cell line panel (SRB), NCI-H322M; settings: Homo sapiens, Non-Small Cell Lung Cancer, single dose of 10 μM, read-out: Cell Growth Percent
SNB-19 = assay: NCI 60 cell line panel (SRB), SNB-19; settings: Homo sapiens; SNB-19, CNS Cancer; single dose of 10 μM; read-out: Cell Growth Percent

SMILES | activity at 10 µM (HCT-116) [%] | activity at 10 µM (OVCAR-4) [%] | activity at 10 µM (786-0) [%] | activity at 10 µM (OVCAR-5) [%] | activity at 10 µM (MOLT-4) [%] | activity at 10 µM (PC-3) [%] | activity at 10 µM (A549/ATCC) [%] | activity at 10 µM (K-562) [%] | activity at 10 µM (DU-145) [%] | activity at 10 µM (NCI-H522) [%] | activity at 10 µM (SF-268) [%] | activity at 10 µM (RPMI-8226) [%] | activity at 10 µM (IGROV1) [%] | activity at 10 µM (HT29) [%] | activity at 10 µM (MDA-MB-468) [%] | activity at 10 µM (RXF 393) [%] | activity at 10 µM (CAKI-1) [%] | activity at 10 µM (A498) [%] | activity at 10 µM (BT-549) [%] | activity at 10 µM (SK-MEL-5) [%] | also measured
CCOC(=O)c1c(C)oc2ncnc(Nc3ccc(C(=O)NCCc4ccccc4)cc3)c12 [Compound 14e] | 64.7 | 45.5 | 74.9 | 110 | 105 | 59.2 | 56.6 | 88.9 | 82.1 | 66.9 | 74.1 | 84.5 | 102 | 58.8 | 90.7 | 71.7 | 92.5 | 77.5 | 67.3 | 85.6 | activity at 10 µM (SK-MEL-28): 87.8%; activity at 10 µM (CCRF-CEM): 80.9%; activity at 10 µM (NCI-H23): 81.8%; activity at 10 µM (SW-620): 105%; activity at 10 µM (T-47D): 65.1%; activity at 10 µM (KM12): 89%; activity at 10 µM (MALME-3M): 89.5%; activity at 10 µM (HOP-92): 61.5%; activity at 10 µM (OVCAR-3): 97.2%; activity at 10 µM (UO-31): 97.3%; activity at 10 µM (LOX IMVI): 75.2%; activity at 10 µM (NCI-H460): 82.9%; activity at 10 µM (NCI-H322M): 92.9%; activity at 10 µM (SNB-19): 84%
CCOC(=O)c1c(C)oc2ncnc(Nc3ccc(NC(=O)Nc4cccc(Cl)c4)cc3)c12 [Compound 15d] | 50.7 | 73.7 | 79.1 | 122 | 49.2 | 41.2 | 32.3 | 67.7 | 70.8 | 57.1 | 86.4 | 46.1 | 78.4 | 37.1 | 49.7 | 63.6 | 90.8 | 63 | 61.5 | 52.9 | activity at 10 µM (SK-MEL-28): 61.8%; activity at 10 µM (CCRF-CEM): 31.5%; activity at 10 µM (NCI-H23): 64%; activity at 10 µM (SW-620): 88.6%; activity at 10 µM (T-47D): 1.9%; activity at 10 µM (KM12): 61%; activity at 10 µM (MALME-3M): 81.4%; activity at 10 µM (HOP-92): 50.6%; activity at 10 µM (OVCAR-3): 80.8%; activity at 10 µM (UO-31): 50.3%; activity at 10 µM (LOX IMVI): 64.1%; activity at 10 µM (NCI-H460): 67.1%; activity at 10 µM (NCI-H322M): 83.5%; activity at 10 µM (SNB-19): 84.6%
CCOC(=O)c1c(C)oc2ncnc(Nc3ccc(NC(=O)Nc4ccc(CC)cc4)cc3)c12 [Compound 15i] | 78.7 | 105 | 99.8 | 107 | 98.6 | 90.7 | 89.2 | 98 | 103 | 83.7 | 103 | 95 | 110 | 103 | 128 | 98.2 | 98.3 | 109 | 84.4 | 93.7 | activity at 10 µM (SK-MEL-28): 105%; activity at 10 µM (CCRF-CEM): 93.7%; activity at 10 µM (NCI-H23): 90.7%; activity at 10 µM (SW-620): 113%; activity at 10 µM (T-47D): 78.2%; activity at 10 µM (KM12): 103%; activity at 10 µM (MALME-3M): 101%; activity at 10 µM (HOP-92): 94.3%; activity at 10 µM (OVCAR-3): 118%; activity at 10 µM (UO-31): 94.7%; activity at 10 µM (LOX IMVI): 100%; activity at 10 µM (NCI-H460): 106%; activity at 10 µM (NCI-H322M): 102%; activity at 10 µM (SNB-19): 97.9%
